# Measured values: patent US8513423B2 (Janssen Pharmaceutica, NV, priority 2010, dated 2013)
# Changes are numbered by the printed parent chain. Where two headings read alike, the source gives them in different places.
# Assays:
# [1] = molecular target: T1, purified mutant MGL (mut-MGLL 11-313 L179S L186S) (Homo sapiens, UniProt Q99685, L169S/L176S); experiment: MGL enzyme activity assay (4MU-B cleavage), mutant MGL; assay type: biochemical; settings: 10 μM 4MU-B, 5 nM enzyme, 37° C., read-out: MGL mutant inh IC50
# T1 construct: purified mutant MGL (mut-MGLL 11-313 L179S L186S)
# T1 sequence (Q99685 1-303 L169S/L176S): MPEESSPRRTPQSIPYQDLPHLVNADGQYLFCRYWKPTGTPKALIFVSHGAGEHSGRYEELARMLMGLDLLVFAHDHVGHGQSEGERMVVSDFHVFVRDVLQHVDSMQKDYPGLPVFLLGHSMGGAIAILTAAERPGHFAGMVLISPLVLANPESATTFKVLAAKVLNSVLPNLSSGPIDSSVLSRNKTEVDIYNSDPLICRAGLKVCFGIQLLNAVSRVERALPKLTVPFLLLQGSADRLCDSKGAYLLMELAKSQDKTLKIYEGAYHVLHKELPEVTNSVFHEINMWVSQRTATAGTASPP
# Protocol: All rate-based assays were performed in black 384-well polypropylene PCR microplates (Abgene) in a total volume of 30 μL. Substrate 4-methylumbelliferyl butyrate (4MU-B; Sigma) and either purified mutant MGL (mut-MGLL 11-313 L179S L186S) or purified wild type MGL (wt-MGLL 6H-11-313) were diluted separately into 20 mM PIPES buffer (pH=7.0), containing 150 mM NaCl and 0.001% Tween 20. Compounds of Formula (I) were pre-dispensed (50 nL) into the assay plate using a Cartesian Hummingbird prior to adding 4MU-B (25 μL of 1.2× solution to a final concentration of 10 μM) followed by enzyme (5 μL of a 6× solution to a final concentration of 5 nM) to initiate the reaction. Final compound concentrations ranged from 17 to 0.0003 μM. The fluorescence change due to 4MU-B cleavage was monitored with excitation and emission wavelengths of 335 and 440 nm, respectively, and a bandwidth of 10 nm (Safire^2, Tecan) at 37° C. for 5 min.
# The IC50 values for compounds of Formula (I) were determined using Excel from a fit of the equation to the concentration-response plot of the fractional activity as a function of inhibitor concentration.
# [2] = molecular target: T2, purified wild type MGL (wt-MGLL 6H-11-313) (Homo sapiens, UniProt Q99685); experiment: MGL enzyme activity assay (4MU-B cleavage), wild type MGL; assay type: biochemical; settings: 10 μM 4MU-B, 5 nM enzyme, 37° C., read-out: MGL wild type inh IC50
# T2 construct: purified wild type MGL (wt-MGLL 6H-11-313)
# T2 sequence (Q99685 1-303): T1 sequence (Q99685 1-303 L169S/L176S) with S169L, S176L
# Summary of the method: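 Enzyme (5 nM final) cleaved 4MU-B (10 μM final) in 20 mM PIPES pH 7.0 with 150 mM NaCl and 0.001% Tween 20. Compounds were tested at 17 to 0.0003 μM final. Fluorescence (ex 335/em 440 nm) was monitored at 37° C for 5 min, and IC50 was fitted from fractional activity versus inhibitor concentration.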
# [3] = molecular target: T3, MGL (Rattus norvegicus, UniProt Q8R431); experiment: 2-AG accumulation assay in rat brain homogenate; assay type: biochemical; settings: compound @1 μM, read-out: Rat Brain 2AG % VehCntrl (%) @1 μM
# T3 construct: one g rat brain was homogenized; from tissue; host or cells: rat brain homogenate
# T3 sequence (Q8R431 1-303): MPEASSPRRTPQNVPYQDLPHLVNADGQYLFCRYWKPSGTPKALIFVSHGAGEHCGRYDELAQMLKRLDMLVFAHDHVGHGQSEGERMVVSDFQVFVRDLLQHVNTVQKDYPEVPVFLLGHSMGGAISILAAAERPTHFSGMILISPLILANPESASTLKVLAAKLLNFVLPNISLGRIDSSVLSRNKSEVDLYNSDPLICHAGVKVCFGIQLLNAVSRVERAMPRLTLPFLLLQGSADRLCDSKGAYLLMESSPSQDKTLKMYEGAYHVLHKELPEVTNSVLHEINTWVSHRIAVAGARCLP
# Summary of the method: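 Inhibition of rat MGL was assessed by measuring 2-AG build-up in brain homogenate. After a 15-min preincubation at 37° C., 10 mM CaCl2 was added and the 5 mL reaction ran 15 min more at 37° C. It was quenched with 6 mL 2:1 chloroform/methanol, extracted 2-AG was measured by HPLC/MS, and accumulation with compound was expressed as a percentage of vehicle.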
# [4] = molecular target: T4, mutant MGL (Homo sapiens, UniProt Q99685, L169S/L176S); experiment: MGL ThermoFluor assay - mutant; assay type: binding
# T4 construct: purified mutant MGL (mut-MGLL 11-313 L179S L186S)
# T4 sequence (Q99685 1-303 L169S/L176S): T1 sequence (Q99685 1-303 L169S/L176S)
# Summary of the method: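 Thermal shift binding with 0.07 mg/ml L169S/L176S MGL, 100 μM 1,8-ANS, 200 mM NaCl, 0.001% Tween-20, 50 mM PIPES pH 7.0. Heated 40–90 °C at 1 °C/min, fluorescence (em 500 nm) tracked to give Tm; Kd fitted from 11-point concentration–Tm response, qKd when stocks quantified by qNMR.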
# [5] = 0.07 mg/ml mutant MGL, pH=7.0, read-out: MGL mutant ThermoFluor Kd
# [6] = compound concentration measured by qNMR, read-out: MGL mutant ThermoFluor qKd (using qNMR conc.)
IC50 [1] [nM],IC50 [2] [nM],"2-AG accumulation, percent of vehicle control at 1 µM [3] [%]","Kd [4, 5] [nM]","Kd [4, 6] [nM]",Compound
< 5,< 5,329,8.9,–,"O=C(c1ccc(-c2ccccc2)cc1)N1CC(C2CCN(C(=O)c3nccs3)CC2)C1 [Cpd 2, 4-[1-(Biphenyl-4-ylcarbonyl)azetidin-3-yl]-1-(1,3-thiazol-2-ylcarbonyl)piperidine]"
79,258,109,100,–,"O=C(c1ccc(-c2ccccc2)cc1)N1CC(C2CCN(C(=O)c3cscn3)CC2)C1 [Cpd 1, 4-[1-(Biphenyl-4-ylcarbonyl)azetidin-3-yl]-1-(1,3-thiazol-4-ylcarbonyl)piperidine]"
–,< 5,724,2.5,5.7,"O=C(c1cscn1)N1CCC(C2CN(C(=O)c3sc4cc(C(F)(F)F)ccc4c3Cl)C2)CC1 [Cpd 35, 4-(1-{[3-Chloro-6-(trifluoromethyl)-1-benzothiophen-2-yl]carbonyl}azetidin-3-yl)-1-(1,3-thiazol-4-ylcarbonyl)piperidine]"
–,37.9,298,19.9,–,"O=C(c1ccc(-c2ccc(C(F)(F)F)s2)cc1)N1CC(C2CCN(C(=O)c3ccc[nH]3)CC2)C1 [Cpd 24, 1-(1H-Pyrrol-2-ylcarbonyl)-4-[1-({4-[5-(trifluoromethyl)thiophen-2-yl]phenyl}carbonyl)azetidin-3-yl]piperidine]"
–,15.5,194,11,–,"O=C(c1ccc(-c2cccc(C(F)(F)F)c2)cc1)N1CC(C2CCN(C(=O)c3cscn3)CC2)C1 [Cpd 10, 1-(1,3-Thiazol-4-ylcarbonyl)-4-(1-{[3′-(trifluoromethyl)biphenyl-4-yl]carbonyl}azetidin-3-yl)piperidine]"
–,62.1,453,–,14.5,"O=C(c1ccc2nc(-c3ccccc3)oc2c1)N1CCC(C2CN(C(=O)c3ccc[nH]3)C2)CC1 [Cpd 68, 2-Phenyl-6-({4-[1-(1H-pyrrol-2-ylcarbonyl)azetidin-3-yl]piperidin-1-yl}carbonyl)-1,3-benzoxazole]"
–,16.4,777,11.1,–,"O=C(c1ccc2nc(-c3ccccc3)oc2c1)N1CC(C2CCN(C(=O)c3nccs3)CC2)C1 [Cpd 28, 2-Phenyl-6-({3-[1-(1,3-thiazol-2-ylcarbonyl)piperidin-4-yl]azetidin-1-yl}carbonyl)-1,3-benzoxazole]"
